From patent publication US11969408B2, “Method for improving mitophagy in subjects” (Amazentis SA, priority 2017, dated 2024)

Columns and labels:
Type in all cases: in vivo, human
[1] = Plasma pharmacokinetics after single oral dose (clinical study Part A)
Protocol: Part A: The study was a double-blind, randomized, single ascending doses, study in 24 healthy elderly male and female volunteers. Each subject was randomized for two subsequent doses in three cohorts. Part A: Single oral dose administration on D1 of each period according to the randomisation. The administration took place around 8:00 am with around 200 mL tap water, in sitting position, and under fasting conditions. Cohort 1 (8 subjects): 250 mg urolithin A (6 subjects) or placebo (2 subjects) capsule soft gel formulation then 2000 mg urolithin A or placebo capsule soft gel formulation. Cohort 3 (8 subjects): 1000 mg urolithin A (6 subjects) or placebo (2 subjects) capsule soft gel formulation. After single dosing: Cmax, tmax, AUC0-t, AUC0-∞, t1/2 From the plasma concentration-time data, the following pharmacokinetic parameters will be determined, as data permit using non-compartmental methods: maximum observed plasma concentration (Cmax) (ng/mL), time at which maximum observed plasma concentration (tmax) (h), area under the plasma concentration-time curve AUC(0-24h) (ng/mL*h) and AUC(0-∞) (ng/mL*h), and apparent terminal phase half-life (t1/2) (h). Blood sampling was performed for urolithin A concentration measurements at the exact timepoints with an authorised time window described in the table below: At each time point indicated in the table, a 6 mL blood sample was drawn into K2-EDTA coated tube. The blood samples were gently inverted a few times for complete mixing with the anticoagulant. The exact time of sample collection was recorded on the eCRF. Within 30 minutes following blood collection, each blood sample was centrifuged at 1500 g for 10 minutes at 4° C. From the plasma concentration-time data, the following pharmacokinetic parameters were determined, as data permit using non-compartmental methods: maximum observed plasma concentration (Cmax), time at which maximum observed plasma concentration (tmax), area under the plasma concentration-time curve AUC(0-24h) and AUC(0-∞), and apparent terminal phase half-life (t1/2).

plasma acylcarnitines = assay: Plasma metabolomics: acylcarnitine plasma levels
Protocol: Blood sampling was performed for analysis on plasma at the exact time-points described in the table below: Blood handling procedures: at each time point indicated in the table, a 6 mL blood sample was drawn into K2-EDTA coated tube. The blood samples were gently inverted a few times for complete mixing with the anticoagulant. The exact time of sample collection was recorded on the eCRF. Within 30 minutes following blood collection, each blood sample was centrifuged at 1500 g for 10 minutes at 4° C. 30 minutes after the centrifugation, the top layer of human plasma was transferred into 2 pre-labelled polypropylene tubes, containing approximately 1500 μL of plasma. Blood cells were not transferred. All sample tubes were clearly and appropriately labelled. Tubes were capped immediately from each time point and the plasma was be frozen in an upright position at approximately −80° C. for storage. […] Proprietary software was used to match ions to an in-house library of standards for metabolite identification and for metabolite quantitation by peak area integration. A total of 781 metabolites were quantified. […] The grey line in FIG. 11 corresponds to a fold change of 1, i.e. absence of effect. *P<0.05 correspond to a significant effect from D-1 (pre-dose) to D28, calculated after a repeated measures ANOVA. […]

[2] = Plasma pharmacokinetics after 28 day daily oral dosing (clinical study Part B)
Protocol: Part B: The study was a double-blinded, randomized, multiple ascending dose study in 36 healthy elderly male and female volunteers. Each subject was randomised to receive study product or placebo for 28 days. Part B: Repeated oral dose administration from day 1 to day 28 according to the randomization. The administration took place around 8:00 am with around 200 mL tap water, in a sitting position, and under fasting conditions. Cohort 3 (12 subjects): 1000 mg urolithin A (9 subjects) or placebo (3 subjects) soft gel capsule formulation for 28 days. After multiple dosing: Cmax, tmax, AUC0-24h, t1/2 From the plasma concentration-time data, the following pharmacokinetic parameters will be determined, as data permit using non-compartmental methods: maximum observed plasma concentration (Cmax) (ng/mL), time at which maximum observed plasma concentration (tmax) (h), area under the plasma concentration-time curve AUC(0-24h) (ng/mL*h) and AUC(0-∞) (ng/mL*h), and apparent terminal phase half-life (t1/2) (h). Blood sampling was performed for urolithin A concentration measurements at the exact timepoints with an authorised time window described in the table below: At each time point indicated in the table, a 6 mL blood sample was drawn into K2-EDTA coated tube. The blood samples were gently inverted a few times for complete mixing with the anticoagulant. The exact time of sample collection was recorded on the eCRF. Within 30 minutes following blood collection, each blood sample was centrifuged at 1500 g for 10 minutes at 4° C. From the plasma concentration-time data, the following pharmacokinetic parameters were determined, as data permit using non-compartmental methods: maximum observed plasma concentration (Cmax), time at which maximum observed plasma concentration (tmax), area under the plasma concentration-time curve AUC(0-24h) and AUC(0-∞), and apparent terminal phase half-life (t1/2).

[3] = system: mitochondrial content per cell in muscle tissue; assay: Mitochondrial DNA copies per cell in muscle tissue; conditions: 1000 mg per day for 28 days compared with placebo
Protocol: Muscle biopsies were collected on Day −1 and Day 28 at pre-dose under fasted state using the Bergström biopsy needle technique. The minimal amount of each muscle tissue sample was approximately 50 mg. One third of the tissue was used for gene expression (≈50 mg), and was further divided into two equal portions: one portion for RNA analysis (≈25 mg) and one portion for DNA analysis (≈25 mg), both in a Safe-lock Tubes 2.0 ml, Eppendorf (part no. 0030.120.094). Muscle tissue was snap frozen using liquid nitrogen immediately after collection and further, long term storage will be in a −80° C. freezer. The mRNA was analysed by microarray. Quantification of mtDNA over nuclear DNA provided another measure of mitochondrial abundance. The shipment was done in dry ice by specialized carrier. Temperatures were monitored using data logger during all transport. Increasing mitochondrial content per cell in muscle tissue was also observed following dosage of 1000 mg urolithin A per day for 28 days compared with placebo.

SMILES: O=c1oc2cc(O)ccc2c2ccc(O)cc12 [Urolithin A]
- plasma levels of urolithin A per mg dosed (dose-normalised Cmax and AUC) ([1]; 1000 mg dosage compared with 2000 mg dosage, single oral dose): higher plasma levels
- Cmax ([1]; both sexes, human, plasma, single oral dose 1000 mg urolithin A, healthy elderly subjects): 1.92 ng/mL
- AUC ([1]; both sexes, human, plasma, single oral dose 1000 mg urolithin A, healthy elderly subjects, read-out: AUC out to 36 hours): 15.8 ng·h/mL
- pharmacokinetics (Cmax and AUC) at 1000 mg compared with 2000 mg ([1]; oral administration, 1000 mg vs 2000 mg dosage): higher Cmax and AUC
- carnitine levels (plasma acylcarnitines; 28 days treatment at 1000 mg): did not change
- plasma short chain up to long chain acylcarnitines (plasma acylcarnitines; after 28 days treatment at 1000 mg, day −1 to day 28): overall decrease
- pharmacokinetic profile over the 28 day period (mean plasma concentrations 24 h after previous dose) ([2]; 500 mg daily dosage, days 0, 7, 14, 28, 29): stable
- Cmax ([2]; both sexes, human, plasma, day 28, daily oral 1000 mg urolithin A for 28 days): 1.97 ng/mL
- AUC ([2]; both sexes, human, plasma, day 28, daily oral 1000 mg urolithin A for 28 days, read-out: AUC out to 24 hours): 17.5 ng·h/mL
- mitochondrial content per cell in muscle tissue (mitochondrial DNA copies per cell) [3]: Increasing
